According to PMC7311950, “Potent Tetrahydroquinolone Eliminates Apicomplexan Parasites” (Frontiers in Cellular and Infection Microbiology, 2020):
Where two headings read alike, the source gives them in different places.

What was measured:
[1] = system: T. gondii mitochondrial membrane potential; assay: T. gondii mitochondrial membrane potential, safranine method; format: cell-based, Toxoplasma gondii; settings: permeabilized T. gondii tachyzoites, safranin O
Method: The mitochondrial membrane potential was measured by the safranine method according to Vercesi et al. ([1998]). Freshly egressed T. gondii tachyzoites were filtered and washed twice with intracellular buffer (125 mM sucrose, 65 mM KCl, 10 mM HEPES-KOH buffer, pH 7.2, 1 mM MgCl2, and 2.5 mM potassium phosphate). After washing, the parasites were resuspended in the same buffer at 10^9/mL. An aliquot of 50 μL of this suspension was added to a cuvette containing Safranin O, 2.5 μM and Succinate 1 mM in final volume of 2 mL of the intracellular buffer. The fluorescence was measured with a Hitachi 7000 spectrofluorometer with settings Ex. 495/Em. 586. Once the baseline fluorescence was stable, 30 μM digitonin was added to permeabilize the parasites. Eighty five seconds after permeabilization, the THQ derivatives, dissolved in DMSO, were added. Five micromolars of FCCP (Carbonyl cyanide-4-(trifluoromethoxy) phenylhydrazone) was used as an uncoupler reference for calculations and its effect was considered 100%. We used similar conditions for measuring the mitochondrial membrane potential of mammalian cells with the following changes: the mammalian cells were resuspended at 10^8/mL. We also used 50 μL of this suspension for each experiment in a total volume of 2 mL. The substrate used for mammalian cells was 5 mM glutamate and 5 mM malate. A higher concentration of digitonin (50 μM) was used to permeabilize the mammalian cells. The compounds were added at ~400 s after permeabilization. Each experiment was repeated at least three times in duplicates. Statistical analysis, unpaired student t-test, was performed using GraphPad Prism 8.0 (GraphPad Software, Inc., San Diego, CA).
Mitochondrial membrane potential measurements were performed with permeabilized T. gondii tachyzoites in suspension using safranin O, which loads into polarized membranes [see section Materials and Methods in the Supplemental Materials (Vercesi et al., [1998])]. T. gondii tachyzoites were permeabilized with digitonin to allow the mitochondrial substrate succinate to cross the membrane and energize the mitochondrion. The fluorescence of safranin O, which loads into energized mitochondria was used to measure the membrane potential. The energized state of the mitochondrion is observed by a decrease in fluorescence (Figures 3A,C,E). Trifluoromethoxy carbonylcyanide phenylhydrazone (FCCP) was used to depolarize the membrane, which is observed as an increase in fluorescence (Figures 3A,B). JAG21 depolarized the membrane potential even at concentrations as low as 2 nM (Figures 3C,D). JAG21 and Atovaquone had similar effects on the mitochondrial membrane potential (Figure 3D). […]

[2] = system: T. gondii RH-YFP tachyzoites; assay: In vitro challenge assay, RH strain YFP tachyzoites in HFF; format: cell-based; settings: Toxoplasma gondii
[3] = RH-YFP tachyzoites in HFF, Figure 1A, read-out: Tachy IC50
[4] = T. gondii tachyzoites, initial library, read-out: IC50

| SMILES | concentration that depolarized the mitochondrial membrane potential [1] [nM] | IC50 [2, 3] [nM] | IC50 [2, 4] [nM] | IC90 ([2]; supplement summary) [nM] |
| --- | --- | --- | --- | --- |
| Cc1[nH]c2c(c(=O)c1-c1ccc(Oc3ccc(OC(F)(F)F)cc3)cc1)CCCC2 [JAG21, 2-Methyl-3-(4-(4-(Trifluoromethoxy)Phenoxy)Phenyl)-5,6,7,8-Tetrahydroquinolin-4-One] | ≤ 2 | 120 | 55 | < 50 |
| Cc1[nH]c2c(c(=O)c1-c1ccc(Oc3ccc(Cl)cc3)cc1)CCCC2 [JAG50] | ≥ 200 | 85 | 33 |  |
